Laboratory results as given in patent US20140187784A1, “RADIOACTIVE QUINOLINONE DERIVATIVE AND PHARMACEUTICAL DRUG COMPRISING THE SAME” (Nihon Medi-Physics Co., Ltd., priority 2012, published 2014).

Assay: Pharmacokinetic and distribution experiment (radioactivity in blood and excised organs after tail vein injection)
Type: in vivo
Conditions: ddy mice; for Adrenal gland/Blood ratio / Radioactivity Distribution, Blood / Radioactivity Distribution, Femur / Radioactivity Distribution, Heart / Radioactivity Distribution, Large intestine / Radioactivity Distribution, Lung / Radioactivity Distribution, Small intestine / Radioactivity Distribution, Spleen / Radioactivity Distribution, Stomach / Adrenal gland/Kidney ratio / Radioactivity Distribution, Adrenal gland / Radioactivity Distribution, Kidney / Radioactivity Distribution, Liver / Radioactivity Distribution, Pancreas / Adrenal gland/Liver ratio: tail vein injection; for Adrenal gland/Blood ratio / Radioactivity Distribution, Blood / Radioactivity Distribution, Femur / Radioactivity Distribution, Heart / Radioactivity Distribution, Large intestine / Radioactivity Distribution, Lung / Radioactivity Distribution, Small intestine / Radioactivity Distribution, Spleen / Radioactivity Distribution, Stomach: 14.8 kBq (4 μCi); for Adrenal gland/Kidney ratio / Radioactivity Distribution, Adrenal gland / Radioactivity Distribution, Kidney / Radioactivity Distribution, Liver / Radioactivity Distribution, Pancreas: 14.8 kBq
Method: (§1) The HPLC fraction of [^125I]PAY15 obtained in Example 3 was concentrated and then diluted with saline. The resulting solution was used in administration. 100 μL of the solution (18.5 kBq (0.5 μCi)) was injected to the tail vein of each of five ddy mice (6 weeks old). Five minutes later, each mouse was decapitated, and blood was collected. Then, organs (adrenal gland, pancreas, heart, lung, stomach, small intestine, large intestine, liver, spleen, kidney, and thyroid gland) were excised. After measurement of their weights, the radioactivities of blood and each excised organ were measured. Also, the point in time when each mouse was decapitated was changed to 5, 15, 30, 60, and 120 minutes later to perform similar operation.
The HPLC fraction of [^125I]PAY21 obtained in Example 6 was concentrated and then diluted with saline. The resulting solution was used in administration to perform the same operation as in Evaluation 1.
as §1, with “[^18F]PAY27 obtained” for “The HPLC fraction of [^125I]PAY15 obtained”, “Example 10” for “Example 3”, “was” for “was concentrated and then”, “solution (14.8” for “solution (18.5”, “kBq (4” for “kBq (0.5”, “and thigh bone)” for “and thyroid gland)”
as §1, with “[^18F]PAY54 obtained” for “The HPLC fraction of [^125I]PAY15 obtained”, “Example 13” for “Example 3”, “was” for “was concentrated and then”, “solution (14.8” for “solution (18.5”, “kBq (4” for “kBq (0.5”, “and thigh bone)” for “and thyroid gland)”

O=C1CCc2cc(-c3cncc(OCC[18F])c3)cc3c2N1CC3 [[^18F]PAY54, 8-(5-(2-[^18F]fluoroethyloxy)pyridin-3-yl)-1,2,5,6-tetrahydro-4H-pyrrolo[3,2,1-ij]quinolin-4-one]
radioactivity accumulation in the adrenal gland compared with blood and the kidney (5 minutes after administration): high radioactivity accumulation
Adrenal gland/Blood ratio (5 min): 1.55 ± 0.43
Radioactivity Distribution, Blood (5 min): 4.5 ± 0.2 % dose/g
Radioactivity Distribution, Femur (5 min): 1.9 ± 0.2 % dose/g
Radioactivity Distribution, Heart (5 min): 4.5 ± 0.5 % dose/g
Radioactivity Distribution, Large intestine (5 min): 3.5 ± 0.3 % dose/g
Radioactivity Distribution, Lung (5 min): 4.6 ± 0.2 % dose/g
Radioactivity Distribution, Small intestine (5 min): 5.6 ± 0.3 % dose/g
Radioactivity Distribution, Spleen (5 min): 3.6 ± 0.2 % dose/g
Radioactivity Distribution, Stomach (5 min): 4.6 ± 1.5 % dose/g
Adrenal gland/Blood ratio (15 min): 0.86 ± 0.15
Radioactivity Distribution, Blood (15 min): 4.5 ± 0.2 % dose/g
Radioactivity Distribution, Femur (15 min): 2.3 ± 0.1 % dose/g
Radioactivity Distribution, Heart (15 min): 3.8 ± 0.2 % dose/g
Radioactivity Distribution, Large intestine (15 min): 6.2 ± 0.5 % dose/g
Radioactivity Distribution, Lung (15 min): 3.7 ± 0.2 % dose/g
Radioactivity Distribution, Small intestine (15 min): 5.3 ± 0.6 % dose/g
Radioactivity Distribution, Spleen (15 min): 3.1 ± 0.2 % dose/g
Radioactivity Distribution, Stomach (15 min): 4.9 ± 0.4 % dose/g
Adrenal gland/Blood ratio (30 min): 0.82 ± 0.13
Radioactivity Distribution, Blood (30 min): 4.3 ± 0.4 % dose/g
Radioactivity Distribution, Femur (30 min): 2.7 ± 0.3 % dose/g
Radioactivity Distribution, Heart (30 min): 3.7 ± 0.5 % dose/g
Radioactivity Distribution, Large intestine (30 min): 8.5 ± 0.5 % dose/g
Radioactivity Distribution, Lung (30 min): 3.4 ± 0.2 % dose/g
Radioactivity Distribution, Small intestine (30 min): 5.0 ± 0.9 % dose/g
Radioactivity Distribution, Spleen (30 min): 3.1 ± 0.1 % dose/g
Radioactivity Distribution, Stomach (30 min): 3.5 ± 0.2 % dose/g
Adrenal gland/Blood ratio (60 min): 1.16 ± 0.15
Radioactivity Distribution, Blood (60 min): 3.5 ± 0.5 % dose/g
Radioactivity Distribution, Femur (60 min): 3.4 ± 0.7 % dose/g
Radioactivity Distribution, Heart (60 min): 2.9 ± 0.5 % dose/g
Radioactivity Distribution, Large intestine (60 min): 7.7 ± 1.2 % dose/g
Radioactivity Distribution, Lung (60 min): 2.9 ± 0.4 % dose/g
Radioactivity Distribution, Small intestine (60 min): 3.7 ± 0.7 % dose/g
Radioactivity Distribution, Spleen (60 min): 2.3 ± 0.6 % dose/g
Radioactivity Distribution, Stomach (60 min): 4.3 ± 0.3 % dose/g
Adrenal gland/Blood ratio (120 min): 0.61 ± 0.63
Radioactivity Distribution, Blood (120 min): 2.8 ± 0.2 % dose/g
Radioactivity Distribution, Femur (120 min): 4.5 ± 0.1 % dose/g
Radioactivity Distribution, Heart (120 min): 2.4 ± 0.4 % dose/g
Radioactivity Distribution, Large intestine (120 min): 7.9 ± 0.7 % dose/g
Radioactivity Distribution, Lung (120 min): 2.2 ± 0.2 % dose/g
Radioactivity Distribution, Small intestine (120 min): 2.4 ± 0.1 % dose/g
Radioactivity Distribution, Spleen (120 min): 2.0 ± 0.2 % dose/g
Radioactivity Distribution, Stomach (120 min): 3.5 ± 0.6 % dose/g
Adrenal gland/Kidney ratio (5 min): 1.60 ± 0.50
Radioactivity Distribution, Adrenal gland (5 min): 7.0 ± 2.1 % dose/g
Radioactivity Distribution, Kidney (5 min): 4.4 ± 0.5 % dose/g
Radioactivity Distribution, Liver (5 min): 7.5 ± 0.5 % dose/g
Radioactivity Distribution, Pancreas (5 min): 3.4 ± 0.3 % dose/g
Adrenal gland/Kidney ratio (15 min): 1.11 ± 0.15
Radioactivity Distribution, Adrenal gland (15 min): 3.9 ± 0.8 % dose/g
Radioactivity Distribution, Kidney (15 min): 3.5 ± 0.6 % dose/g
Radioactivity Distribution, Liver (15 min): 6.0 ± 0.4 % dose/g
Radioactivity Distribution, Pancreas (15 min): 2.7 ± 0.2 % dose/g
Adrenal gland/Kidney ratio (30 min): 0.98 ± 0.15
Radioactivity Distribution, Adrenal gland (30 min): 3.5 ± 0.4 % dose/g
Radioactivity Distribution, Kidney (30 min): 3.6 ± 0.4 % dose/g
Radioactivity Distribution, Liver (30 min): 5.7 ± 0.6 % dose/g
Radioactivity Distribution, Pancreas (30 min): 2.6 ± 0.2 % dose/g
Adrenal gland/Kidney ratio (60 min): 1.40 ± 0.34
Radioactivity Distribution, Adrenal gland (60 min): 4.1 ± 1.0 % dose/g
Radioactivity Distribution, Kidney (60 min): 3.0 ± 0.3 % dose/g
Radioactivity Distribution, Liver (60 min): 5.0 ± 0.3 % dose/g
Radioactivity Distribution, Pancreas (60 min): 2.4 ± 0.4 % dose/g
Adrenal gland/Kidney ratio (120 min): 0.58 ± 0.54
Radioactivity Distribution, Adrenal gland (120 min): 2.0 ± 1.5 % dose/g
Radioactivity Distribution, Kidney (120 min): 2.8 ± 0.4 % dose/g
Radioactivity Distribution, Liver (120 min): 4.7 ± 0.6 % dose/g
Radioactivity Distribution, Pancreas (120 min): 1.7 ± 0.2 % dose/g
Adrenal gland/Liver ratio (5 min): 0.95 ± 0.34
Adrenal gland/Liver ratio (15 min): 0.64 ± 0.13
Adrenal gland/Liver ratio (30 min): 0.61 ± 0.12
Adrenal gland/Liver ratio (60 min): 0.82 ± 0.19
Adrenal gland/Liver ratio (120 min): 0.38 ± 0.41
